Experiments:
human hepatic LO2 cells = settings: read-out: IC50 LO2; MTT, 48 h, mean ± SD, three independent experiments
Protocol: (§1) These cell lines were cultured in Dulbecco's Modified Eagle Medium containing 10% (v/v) fetal bovine serum (FBS, Wisent) and 1% (v/v) Penicillin-Streptomycin Solution mixture (Beyotime, Shanghai, China) at 37 °C under 5% CO2. An MTT assay evaluated the cytotoxicity of lupeol derivatives toward the A549, MCF-7, HepG2, and LO2 cell lines. The cells were inoculated into 96-well plates (3 × 10^3 cells/well) and cultured for 24 h at 37 °C in 5% CO2. After that, a gradient concentration of the test drug was added to continue the incubation for 48 h. Subsequently, the MTT solution continued to incubate with the cells for 4 h. Afterward, the upper waste layer was discarded, and DMSO was added ([…], Tianjin, China). After the formazan completely dissolved, the absorbance of each well at 490 nm was measured with a microplate reader. The mean values were derived from three independent experiments.

[1] = tested on: human breast cancer MCF-7; assay: MTT antiproliferative assay, MCF-7; format: cell-based; settings: mean ± SD, three independent experiments
Protocol: as §1

human lung cancer A549 = assay: MTT antiproliferative assay, A549; format: cell-based; settings: 48 h, mean ± SD, three independent experiments
Protocol: as §1

[2] = tested on: human hepatocarcinoma HepG2; assay: MTT antiproliferative assay, HepG2; format: cell-based; settings: for SI (selectivity index): IC50 values on L02 cells/HepG2 cells; for IC50: MTT, 48 h, mean ± SD, three independent experiments
Protocol: as §1

Structure (SMILES) | IC50 ([1]; 48 h) [µM] | IC50 (human lung cancer A549) [µM] | IC50 [2] [µM] | IC50 ([1]; Homo sapiens, MCF7, 48 h) [µM] | IC50 ([2]; Homo sapiens, HepG2) [µM] | IC50 (human hepatic LO2 cells) [µM] | SI (selectivity index) [2]
C=C(C)C1CCC2(C)CCC3(C)C(CCC4C5(C)CCC(OC(=O)CN6C(=O)SC(=Cc7ccc(OC)c(OC)c7OC)C6=O)C(C)(C)C5CCC43C)C12 (stereo not shown) [Compound 6f, Lupeol-3-[(1-Ethyl)-2]-5-(2,3,4-Trimethoxybenzylidene)-2,4-Thiazolidinedione] | 16.1 ± 0.89 | 10.3 ± 0.86 | 19.2 ± 1.57 | – | – | 85.3 ± 1.12 | 4.44
C=C(C)C1CCC2(C)CCC3(C)C(CCC4C5(C)CCC(OC(=O)N6CCN(C(=O)CN7C(=O)SC(=Cc8cccs8)C7=O)CC6)C(C)(C)C5CCC43C)C12 (stereo not shown) [Compound 9h, Lupeol-3-[(1-Piperazinyl)-4]-5-(2-Thienylmethylene)-2,4-Thiazolidinedione] | 13.8 ± 0.58 | 16.4 ± 1.69 | 15.3 ± 0.98 | – | – | 68.9 ± 1.19 | 4.50
C=C(C)C1CCC2(C)CCC3(C)C(CCC4C5(C)CCC(OC(=O)N6CCN(C(=O)CN7C(=O)SC(=CC(C)C)C7=O)CC6)C(C)(C)C5CCC43C)C12 (stereo not shown) [Compound 9i, Lupeol-3-[(1-Piperazinyl)-4]-5-(2-Methylpropylidene)-2,4-Thiazolidinedione] | 20.1 ± 1.59 | 13.8 ± 0.84 | 6.91 ± 0.31 | – | – | 35.4 ± 0.72 | 5.12
C=C(C)C1CCC2(C)CCC3(C)C(CCC4C5(C)CCC(OC(=O)CN6C(=O)SC(=Cc7ccc(Cl)cc7)C6=O)C(C)(C)C5CCC43C)C12 (stereo not shown) [Compound 6b, Lupeol-3-[(1-Ethyl)-2]-5-(4-Chlorobenzylidene)-2,4-Thiazolidinedione] | 13.8 ± 0.75 | 14.2 ± 1.72 | 16.6 ± 1.38 | – | – | 70.5 ± 1.51 | 4.25
C=C(C)C1CCC2(C)CCC3(C)C(CCC4C5(C)CCC(OC(=O)N6CCN(C(=O)CN7C(=O)SC(=Cc8ccco8)C7=O)CC6)C(C)(C)C5CCC43C)C12 (stereo not shown) [Compound 9g, Lupeol-3-[(1-Piperazinyl)-4]-5-(2-Furanylmethylene)-2,4-Thiazolidinedione] | 12 ± 0.75 | 9.91 ± 0.42 | 15 ± 0.74 | – | – | 62.77 ± 0.62 | 4.19
C=C(C)C1CCC2(C)CCC3(C)C(CCC4C5(C)CCC(OC(=O)N6CCN(C(=O)CN7C(=O)SC(=Cc8ccc(C(C)(C)C)cc8)C7=O)CC6)C(C)(C)C5CCC43C)C12 (stereo not shown) [Compound 9d, Lupeol-3-[(1-Piperazinyl)-4]-5-(4-Tert-Butylphenyl)-2,4-Thiazolidinedione] | 18.1 ± 1.93 | 11.7 ± 0.75 | 9.52 ± 0.61 | – | – | 42.2 ± 1.28 | 4.43
C=C(C)C1CCC2(C)CCC3(C)C(CCC4C5(C)CCC(OC(=O)CN6C(=O)SC(=Cc7ccco7)C6=O)C(C)(C)C5CCC43C)C12 (stereo not shown) [Compound 6g, Lupeol-3-[(1-Ethyl)-2]-5-(2-Furanylmethylene)-2,4-Thiazolidinedione] | 12.8 ± 0.22 | 14.9 ± 1.21 | 15.3 ± 1.32 | – | – | 60.6 ± 1.84 | 3.95
C=C(C)C1CCC2(C)CCC3(C)C(CCC4C5(C)CCC(OC(=O)CN6C(=O)SC(=Cc7ccccc7OC)C6=O)C(C)(C)C5CCC43C)C12 (stereo not shown) [Compound 6e, Lupeol-3-[(1-Ethyl)-2]-5-(2-Methoxybenzylidene)-2,4-Thiazolidinedione] | 12.5 ± 0.74 | 9.43 ± 0.74 | 15.5 ± 0.86 | – | – | 70.8 ± 0.93 | 4.57
C=C(C)C1CCC2(C)CCC3(C)C(CCC4C5(C)CCC(OC(=O)CN6C(=O)SC(=Cc7ccc(C)cc7)C6=O)C(C)(C)C5CCC43C)C12 (stereo not shown) [Compound 6c, Lupeol-3-[(1-Ethyl)-2]-5-(4-Methylbenzylidene)-2,4-Thiazolidinedione] | 22.1 ± 1.42 | 10.4 ± 0.82 | 18.2 ± 1.27 | – | – | 76.4 ± 1.22 | 4.2
C=C(C)C1CCC2(C)CCC3(C)C(CCC4C5(C)CCC(OC(=O)N6CCN(C(=O)CN7C(=O)SC(=Cc8ccc(F)cc8)C7=O)CC6)C(C)(C)C5CCC43C)C12 (stereo not shown) [Compound 9a, Lupeol-3-[(1-Piperazinyl)-4]-5-(4-Fluorobenzylidene)-2,4-Thiazolidinedione] | 19.1 ± 1.78 | 18.7 ± 1.25 | 20.5 ± 1.62 | – | – | 79.1 ± 1.25 | 3.87
C=C(C)C1CCC2(C)CCC3(C)C(CCC4C5(C)CCC(OC(=O)N6CCN(C(=O)CN7C(=O)SC(=Cc8ccccc8OC)C7=O)CC6)C(C)(C)C5CCC43C)C12 (stereo not shown) [Compound 9e, Lupeol-3-[(1-Piperazinyl)-4]-5-(2-Methoxybenzylidene)-2,4-Thiazolidinedione] | 18.6 ± 1.27 | 10.4 ± 0.38 | 16.5 ± 1.26 | – | – | 63.3 ± 1.14 | 3.83
C=C(C)C1CCC2(C)CCC3(C)C(CCC4C5(C)CCC(OC(=O)CN6C(=O)SC(=Cc7ccc(F)cc7)C6=O)C(C)(C)C5CCC43C)C12 (stereo not shown) [Compound 6a, Lupeol-3-[(1-Ethyl)-2]-5-(4-Fluorobenzylidene)-2,4-Thiazolidinedione] | 24 ± 1.87 | 17.3 ± 1.58 | 22.7 ± 1.59 | – | – | 92.6 ± 1.03 | 4.07
C=C(C)C1CCC2(C)CCC3(C)C(CCC4C5(C)CCC(OC(=O)CN6C(=O)SC(=Cc7cccs7)C6=O)C(C)(C)C5CCC43C)C12 (stereo not shown) [Compound 6h, Lupeol-3-[(1-Ethyl)-2]-5-(2-Thienylmethylene)-2,4-Thiazolidinedione] | 11.3 ± 0.85 | 14 ± 1.39 | 12.8 ± 0.97 | – | – | 58.4 ± 0.78 | 4.55
C=C(C)C1CCC2(C)CCC3(C)C(CCC4C5(C)CCC(OC(=O)N6CCN(C(=O)CN7C(=O)SC(=Cc8ccc(C)cc8)C7=O)CC6)C(C)(C)C5CCC43C)C12 (stereo not shown) [Compound 9c, Lupeol-3-[(1-Piperazinyl)-2]-5-(4-Methylbenzylidene)-2,4-Thiazolidinedione] | 16.3 ± 0.76 | 12.7 ± 0.68 | 15.7 ± 1.52 | – | – | 65.1 ± 0.93 | 4.14
C=C(C)[C@@H]1CC[C@]2(C)CC[C@]3(C)[C@H](CC[C@@H]4[C@@]5(C)CC[C@H](O)C(C)(C)[C@@H]5CC[C@]43C)[C@@H]12 [Lupeol] | – | – | – | 62 ± 1.79 | 43.6 ± 1.37 | – | –
N.N.[Cl][Pt][Cl] [Cisplatin, cisplatin, reference compound] | 5.79 ± 0.49 | 4.96 ± 0.48 | 4.65 ± 0.54 | – | – | – | –

The next lines start with results.

IC50 ([1]; 48 h) [µM] | IC50 (human lung cancer A549) [µM] | IC50 [2] [µM] | IC50 ([1]; Homo sapiens, MCF7, 48 h) [µM] | IC50 ([2]; Homo sapiens, HepG2) [µM] | Structure (SMILES) | IC50 (human hepatic LO2 cells) [µM] | SI (selectivity index) [2]
16.8 ± 1.29 | 10.5 ± 0.56 | 16.5 ± 0.54 | – | – | C=C(C)C1CCC2(C)CCC3(C)C(CCC4C5(C)CCC(OC(=O)NCCNC(=O)CN6C(=O)SC(=Cc7ccc(F)cc7)C6=O)C(C)(C)C5CCC43C)C12 (stereo not shown) [Compound 12a, Lupeol-3-[(1-Ethylenediaminyl)-4]-5-(4-Fluorobenzylidene)-2,4-Thiazolidinedione] | 71.03 ± 0.57 | 4.30
14.3 ± 0.78 | 13.4 ± 0.79 | 10.7 ± 0.12 | – | – | C=C(C)C1CCC2(C)CCC3(C)C(CCC4C5(C)CCC(OC(=O)NCCNC(=O)CN6C(=O)SC(=Cc7ccc(C)cc7)C6=O)C(C)(C)C5CCC43C)C12 (stereo not shown) [Compound 12c, Lupeol-3-[(1-Ethylenediaminyl)-2]-5-(4-Methylbenzylidene)-2,4-Thiazolidinedione] | 40.68 ± 0.31 | 3.79
14.4 ± 0.72 | 13.8 ± 0.76 | 12.9 ± 0.52 | – | – | C=C(C)C1CCC2(C)CCC3(C)C(CCC4C5(C)CCC(OC(=O)NCCNC(=O)CN6C(=O)SC(=Cc7ccccc7OC)C6=O)C(C)(C)C5CCC43C)C12 (stereo not shown) [Compound 12e, Lupeol-3-[(1-Ethylenediaminyl)-4]-5-(2-Methoxybenzylidene)-2,4-Thiazolidinedione] | 57.7 ± 1.14 | 4.46
9.12 ± 0.24 | 16.4 ± 0.43 | 15.8 ± 0.68 | – | – | C=C(C)C1CCC2(C)CCC3(C)C(CCC4C5(C)CCC(OC(=O)NCCNC(=O)CN6C(=O)SC(=Cc7ccc(C(C)(C)C)cc7)C6=O)C(C)(C)C5CCC43C)C12 (stereo not shown) [Compound 12d, Lupeol-3-[(1-Ethylenediaminyl)-4]-5-(4-Tert-Butylphenyl)-2,4-Thiazolidinedione] | 59.9 ± 1.03 | 3.80
17.3 ± 1.28 | 13.4 ± 1.08 | 18.6 ± 1.49 | – | – | C=C(C)C1CCC2(C)CCC3(C)C(CCC4C5(C)CCC(OC(=O)NCCNC(=O)CN6C(=O)SC(=Cc7cccs7)C6=O)C(C)(C)C5CCC43C)C12 (stereo not shown) [Compound 12h, Lupeol-3-[(1-Ethylenediaminyl)-4]-5-(2-Thienylmethylene)-2,4-Thiazolidinedione] | 77.5 ± 1.27 | –
10 ± 0.22 | 9.68 ± 0.52 | 9.43 ± 0.78 | – | – | C=C(C)C1CCC2(C)CCC3(C)C(CCC4C5(C)CCC(OC(=O)NCCNC(=O)CN6C(=O)SC(=Cc7ccc(OC)c(OC)c7OC)C6=O)C(C)(C)C5CCC43C)C12 (stereo not shown) [Compound 12f, Lupeol-3-[(1-Ethylenediaminyl)-4]-5-(2,3,4-Trimethoxybenzylidene)-2,4-Thiazolidinedione] | 35.53 ± 0.34 | 3.77
19.1 ± 1.63 | 17.1 ± 1.28 | 17.7 ± 0.79 | – | – | C=C(C)C1CCC2(C)CCC3(C)C(CCC4C5(C)CCC(OC(=O)NCCNC(=O)CN6C(=O)SC(=Cc7ccc(Cl)cc7)C6=O)C(C)(C)C5CCC43C)C12 (stereo not shown) [Compound 12b, Lupeol-3-[(1-Ethylenediaminyl)-4]-5-(4-Chlorobenzylidene)-2,4-Thiazolidinedione] | 76.87 ± 0.69 | 4.35
